The values below come from publication PMC12232376, “A Lysozyme-Derived Peptide Induces GLP‑1 Secretion in Mouse Jejunal Organoids and Modulates Glycemia in Rats” (Journal of Agricultural and Food Chemistry, 2025).

Where no end group is shown, it is not given here.

Data set [1] concerns PYY gene expression. Nature of the data set: Relative PYY gene expression in STC-1 cells (qPCR). Type of data set: cell-based. The conditions noted are these: 60 min, Phe 20 mM. As for the experimental part: (§1) Cells were cultured at 37 °C, 5% CO2, and a humidified atmosphere for 48 h into 24-well plates at a density of 3 × 10^5 cells per well.
(§2) For RNA isolation, frozen STC-1 cells or organoids were homogenized in QIAzol, and total RNA was isolated using the miRNeasy Mini Kit (Qiagen, Hilden, Germany). Total RNA was quantified in a NanoDrop 2000 spectrophotometer (Thermo Scientific, MA, USA). According to the instructions, total RNA was reverse transcribed to cDNA using a Script II RT Kit (Qiagen, Hilden, Germany). RNA expression levels were determined in duplicate by quantitative real-time PCR (qPCR) on a 7900HT Real-Time PCR System (Applied Biosystems), using miScript SYBR Green PCR Kits (Qiagen, Hilden, Germany).
(§3) Amplification was initiated at 50 °C for 2 min and at 95 °C for 10 min, followed by 40 cycles of 95 °C for 15 s and 60 °C for 1 min. The following specific oligonucleotides were used: for cholecystokinin (CCK) forward (F) 5′-[…]-3′ and reverse (R) 5′-[…]-3′; for GLP-1 (F) 5′-[…]-3′ and (R) 5′-[…]-3′; for peptide YY (PYY) (F) 5′-[…]-3′ and (R) 5′-[…]-3′; and for reference gene β-actin (F) 5′-[…]-3′ and (R) 5′-[…]-3′. The relative expression levels of the target gene were calculated using the comparative critical threshold method (2^–ΔΔCt), by normalizing the data to the expression of β-actin.
(Real-time PCR tracks product formation cycle by cycle.)

Data set [2] has as its system CCK gene expression. In words: Relative CCK gene expression in organoids (qPCR). Type of data set: cell-based, mouse. The conditions noted are these: peptide 1 mM (induced at 60 min), Phe 20 mM (induced from 30 min), versus control. The method, then: as §2, §3
The subject of data set [3] is p-IRS. Nature of the data set: Immunoblotting p-IRS/IRS in STC-1 cells. In kind it is cell-based. The conditions noted are these: peptide 1 mM, EWD 2 mg/mL, Phe 20 mM, 5, 15, 30, 60 min, immunoblot. As for the experimental part:
[…]; then, cells were lysed with RIPA buffer, and ERK1/2, p-ERK1/2, AMPK, p-AMPK, p-IRS-1, IRS-1, glyceraldehyde-3-phosphate dehydrogenase (GAPDH), and heat shock protein (HSP90) contents were examined using immunoblotting. Protein samples were lysed, separated on 10% SDS-polyacrylamide gels, and the separated proteins were electroblotted from the gel onto nitrocellulose membranes ([…], Millipore, MA, USA) and blocked with skim milk for 30 min at room temperature. Membranes were incubated with primary antibodies overnight at 4 °C. After incubation, membranes were exposed to secondary antibodies for 45 min at room temperature. Blots were rinsed three times with Tris-buffered saline with Tween 20, pH 8.0, after each incubation step and visualized using an Odyssey infrared imaging system (LI-COR, Lincoln, NE, USA).
Background: A western blot detects proteins with antibodies after separation by electrophoresis.

Data set [4] concerns CCK gene expression. Nature of the data set: Relative CCK gene expression in STC-1 cells (qPCR). Type of data set: cell-based. To be noted: 60 min, Phe 20 mM. As for the experimental part:
as §1, §2, §3

For data set [5], the system named is PYY gene expression. Nature of the data set: Relative PYY gene expression in organoids (qPCR). Type of data set: cell-based, mouse. To be noted: organoids, 10, 30, 60 min; EWD 2 mg/mL, Phe 20 mM, peptide 1 mM. As for the experimental part:
as §2, §3

In data set [6] the test system is mouse jejunal organoids. In words: GLP-1 secretion in mouse jejunal organoids (GLP-1 Active ELISA of supernatants). In kind it is cell-based. The conditions noted are these: Phe 20 mM, peptide 1 mM, n = 3. As for the experimental part: Mouse intestinal organoids (enteroids) were derived from adult intestinal stem cells (ISCs). Intestinal crypts were isolated from the jejunum of male and female wild-type mice following the protocol provided by STEMCELL Technologies. Crypts were cultured at 37 °C until organoids were fully developed (5–7 days). Intestinal organoids were suspended in 10 mL of cold DMEM/F12 (Lonza, Basel, Switzerland), and the crypts were suspended in a mixture (50:50) of Matrigel (Corning, NY, USA) and complete IntestiCult Organoid Growth Medium (STEMCELL Technologies, Vancouver, Canada). This mix was gently placed in the center of each well of a prewarmed 24-well plate until the Matrigel solidified and formed a dome. IntestiCult Organoid Growth Medium (STEMCELL Technologies, Vancouver, Canada) was added, and crypts were cultured at 37 °C and 5% CO2 until organoids were developed. After 7 days, the mouse intestinal organoids were passed following the STEMCELL Technologies protocol. The experiments were performed from passage numbers 1 to 6.
(§4) After hormonal secretion studies, GLP-1_7–36NH2 was measured in the supernatants of cells or organoids in duplicate with the commercial immunoassay Glucagon-Like Peptide-1 Active ELISA (Merck KGaA, Darmstadt, Germany), according to the manufacturer’s instructions.

In data set [7] the test system is proglucagon gene expression. In words: Relative proglucagon gene expression in organoids (qPCR). To be noted: 10 min, Phe 20 mM, 2^-ΔΔCt normalised to β-actin, versus control. In kind it is cell-based, mouse. The method, then:
as §2, §3

The test system of data set [8] is STC-1 cells. Nature of the data set: GLP-1 secretion in STC-1 cells (GLP-1 Active ELISA of supernatants). Type of data set: cell-based. The conditions noted are these: Phe 20 mM, peptide 1 mM, n = 3. The method, then: STC-1 cells supplied by ATCC (ATCC CRL-3254, Manassas, VA, USA) were cultured in Dulbecco’s Modified Eagle’s Medium (ATCC, Manassas, VA, USA) supplemented with 100 U/mL penicillin, 100 mg/L streptomycin, 0.25 μg/mL amphotericin (Lonza Group, Basel, Switzerland), and 10% fetal bovine serum (ATCC, Manassas, VA, USA). Cells were incubated at 37 °C in a 5% CO2 humidified atmosphere, and once they reached 80% confluence, they were trypsinized and seeded according to each cell study. The experiments were performed from passage numbers 31–35.
as §1, §4

The test system of data set [9] is STC-1 cells. The conditions noted are these: earlier screening in STC-1; ref authors' previous study (number not given); cited from earlier work. The method, then: Later, other authors, using the enteroendocrine cell line STC-1, have related the GLP-1-inducing effect to peptides of molecular mass between […], and it was shown that peptides present a greater induc ... || There is little information about the structural features necessary to induce secretion by enteroendocrine cells of GLP-1. The organoid cellular media collected at 60 min were analyzed by HPLC–MS/MS in order to assess the possible proteolysis of the assayed peptides during the incubation. The small intestine brush border has different enzymes, oligopeptidases, lipases, and carbohydrases that contribute to nutrient hydrolysis and absorption. Other authors have described that enterocytes present in mouse intestinal organoids have mature brush borders, with the presence of their typical enzymes, ...

Data set [10] relates to mouse intestinal organoids.
Description: On the day of the experiment, the medium was discarded, and the Matrigel was removed with cold PBS. Next, the organoids were centrifuged for 3 min at 300 × g, the medium was discarded, and after three washes, the organoids were resuspended in saline buffer (20 mM HEPES 1 M, 1 mM glucose, 140 mM NaCl, 4.5 mM KCl, 1.2 mM CaCl2, 1.2 mM MgCl2, 0.1% BSA, pH 7.4). The organoids were incubated for 40 min at 37 °C in this buffer. These organoids were resuspended in a new saline buffer and transferred to 96-well plates at a 60 organoids per well-ratio. The samples (EWD at 2 mg/mL, Phe at 20 mM, and synthetic peptide at 1 mM) were diluted in saline buffer, added to the well, and assayed in triplicate. […] After 10, 30, and 60 min, the plate was centrifuged for 3 min at 300 × g, supernatants were collected, organoids were lysed with QIAzol (Qiagen, Hilden, Germany), and samples were stored at −80 °C for further analysis.
The percentage of each sequence was calculated relative to the total area in each sample.

Compound `N[C@@H](Cc1ccccc1)C(=O)O` [Phe, Phenylalanine] returned a PYY gene overexpression in [1] of 2 fold. For the same compound, the “CCK gene expression, maximum fold change” value in data set [2] is on record as 2.8 fold change. Moreover, the “p-IRS expression versus control, in words” value in [3] is recorded as “p-IRS overexpression at all time points”. Further, the CCK gene overexpression in data set [4] worked out at 4 fold. In addition, the “PYY gene expression versus control, in words” value in data set [5] is “an effect of both the peptide and Phe was observed at 10 min, with Phe keeping the increased expression at 30 min”. For the same compound, in [6] (10, 30 and 60 min, EWD 2 mg/mL), the “GLP-1 release in organoids versus control, in words” value is “faster GLP-1 induction was observed in the case of Phe (10 min)”. Also, the “GLP-1 release in organoids” value in data set [6] (60 min, 60 organoids per well in saline buffer pH 7.4, 37 °C, ELISA, mean ± SEM) was found to be 43.7 ± 1 pM. Moreover, in data set [7], the “Relative proglucagon gene expression” value is 1.8 fold change. Besides, the “GLP-1 release in STC-1 cells versus control, in words” value in data set [8] (10, 30 and 60 min, EWD 2 mg/mL) is “only reached significance after incubation with the peptide or Phe for 60 min”. The “GLP-1 induced in STC-1 cells” value in [8] (HEPES buffer pH 7.4, time not printed at the place (60 min by b40), ELISA, mean ± SEM) stood at 416.6 ± 40.1 pM.
For the compound “IRGCRL [124IRGCRL129, hexapeptide, shorter form of 123WIRGCRL129 found in organoid supernatants]”, in data set [9], the “GLP-1 secretion in STC-1 cells, in words” value is listed as “induce GLP-1 in STC-1, although at lower levels than the tryptophan-containing precursor peptide”.
As to WARGCRL [WARGCRL], in [10], the “Susceptibility to peptidases in organoids, in words” value is “most susceptible sequences to the action of peptidases”.
Still for that read-out and setting: the entry for WIRACRL [WIRACRL] is “most susceptible sequences to the action of peptidases”; for WIRGARL [WIRGARL] it is “most susceptible sequences to the action of peptidases”.
